The values that follow are results of earlier work, collected in patent US7381426B2, “Targeted delivery of bioactive factors to the systemic skeleton” (Southwest Research Institute, priority 2002, dated 2008).

In this data set the test system is hindlimb unloading in rats. As to conditions: infusion 2 μg/kg/day, hindlimb unloaded rats.

As for TGF-β, the “effect on unloading-induced bone changes” value was “corrects the decrease in bone mass, calcium content, osteoblast number and mineralization rate”.
